# Test results: US9493460B2, “Diimide compounds” (UCL BUSINESS PLC, priority 2013, dated 2016)
# pIC50: −log10 of the molar value. “Also recorded” adds a separate entry of the source.
# Legend:
# [1] = system: 83 human genes involved in DNA damage signaling responses in Mia-PaCa2 cells; test: qPCR array, DNA damage signaling response genes; format: cell-based
# Method: (§1) Following compound exposure, cells were washed twice in PBS, harvested by trypsinisation, collected by centrifugation (300 g, 5 min, 4° C.) and re-suspended in RLT buffer (Qiagen). Samples were homogenised using QIAshredder spin columns and stored at −80° C. prior to RNA extraction. Three biological replicates were performed on separate days.
# (§2) The expression of (i) 83 key human genes involved in telomere replication and maintenance, and (ii) 83 human genes involved in DNA damage signaling responses, was assessed using PCR arrays (SABiosciences). Total RNA was extracted from approximately 1×10^7 Mia-PaCa2 cells treated for 24 h with compound 3d, using the RNeasy kit (Qiagen) with on-column DNaseI treatment to remove residual genomic DNA. The quality of the harvested RNA was confirmed by nanodrop spectroscopy and by analysis with a Human RT^2 RNA QC PCR Array. First-strand cDNA synthesis was performed with the RT^2 first strand kit and qPCR was carried out using the RT^2 qPCR master mix (Qiagen) using 0.5 μg total RNA per array plate in a Stratagene MX-3000P instrument (Agilent, USA). Relative gene expression was determined by the ΔΔCT method using the web-based RT^2 Profiler™ PCR Array Data Analysis software (SABiosciences). Data were normalized to the geometric mean of five housekeeping genes (RPLP10, β-actin, B2M, GAPDH and HPRT1).
# Various quadruplex-stabilising agents are known to induce pronounced DNA damage responses. We therefore next assessed the effect of 3d on the transcription of genes associated with DNA damage response and repair pathways. For these pathways the effect of a cytotoxic dosage of 3d (160 nM) on Mia-PaCa2 cells was also tested to assess the correlation between compound-induced DNA damage and cell killing. […] The latter two groups appeared to reflect a dynamic switch in the cellular response from low-level growth inhibition up to 40 nM of 3d to cytostatic then cytotoxic effects at 80 nM and 160 nM respectively.
# Instead the response was dominated by genes with roles in growth arrest and more general stress responses.
# [2] = system: 83 human genes involved in telomere replication and maintenance in Mia-PaCa2 cells; test: qPCR array, telomere replication and maintenance genes; format: cell-based
# Method: as §1, §2
# Dose-response curves were used to guide the choice of compound concentration and time-points for the array experiments (FIG. 2a). […] To explore this response continuum the transcriptional signature of cells exposed for 24 h to 20 nM, 40 nM, 80 nM concentrations of 3d, or solvent alone as control, was analysed as described in Materials and Methods.
# However, changes in transcript abundance were modest, with only seven of these genes (MYC, NHP2, PPARG, PRKCB, PTEGES3, RASSF1 and SLX4) showing greater than two-fold abundance changes (FIGS. 2d and 2e).
# Panc1 (pancreatic) cells = test: SRB growth inhibition assay, 96 hr exposure, Panc1; format: cell-based, human; conditions: Homo sapiens, PANC-1, 96 h exposure
# Method in brief: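 SRB growth inhibition was measured after 96 h exposure to 2-fold serial dilutions of compound, with cells maintained at 37 °C in 5% CO2 and medium containing 10% FBS. Absorbance at 540 nm was expressed as a percentage of untreated control wells. IC50 was derived from these values.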
# telomerase = test: TRAP-LIG cellular telomerase activity assay; format: cell-based, human; conditions: at the doses relevant to the IC50 values
# Method: FIG. 1. Gel showing telomerase activity in MIA-Pa-Ca-2 cells treated with compound 3h after seven days of treatment. Lane 1; untreated cells, lanes 2-4; cells treated increasing concentrations of 3h. Telomerase activity was assessed using the TRAP-LIG assay as described in Materials and Methods. Compound concentrations are indicated. Neg; untreated cells, Pos; positive control. Neg: negative control with telomerase but no ligand.
# Telomerase activity was determined using the TRAP-LIG assay, a modified telomere repeat amplification protocol that ensures that there is no carry-over of ligand into the second PCR step of the assay. Briefly, 1 μg of protein from untreated and treated cells were incubated with TS forward primer (0.1 μg of 5′-AAT CCG TCG AGC AGA GTT-3′) at 30° C. for 10 min to allow the initial elongation to take place. Elongated products were purified using the QIAquick nucleotide purification kit (Qiagen) according to the manufacturer's instructions. Eluted samples were freeze-dried and re-dissolved in PCR grade water. Re-dissolved PCR products were subjected to amplification in master mix containing ACX reverse primer (1 μM, 5′-GCG CGG [CTTACC]3 CTA ACC-3′), TS forward primer (0.1 μg), TRAP buffer, BSA (5 μg), 0.5 mM dNTPs, and 2U RedHot TAQ polymerase (ABgene, U.K.) for 35 cycles of 94° C. for 30 s, 61° C. for 1 min, and at 72° C. for 1 min. […]
smiles,measurement,setting,value
"CN1CCN(CCCNc2cc3c4c(c(NCCCN5CCN(C)CC5)cc5c4c2C(=O)N(CCCN2CCOCC2)C5=O)C(=O)N(CCCN2CCOCC2)C3=O)CC1 [Compound 3d, 4,9-bis((3-(4-methylpiperazin-1-yl)propyl)amino)-2,7-bis(3-morpholinopropyl)benzo[lmn][3,8]phenanthroline-1,3,6,8(2H,7H)-tetraone]",expression of DNA damage checkpoint genes ATM and ATR,[1]; 24 h,no significant induction or repression
same,induction of γ-H2AX,"[1]; Mia-PaCa2 cells, data not shown",no apparent induction; also recorded: do not appear to induce these particular changes
same,"expression of CDKN1A, DDIT3 and GADD45G",[1]; cytotoxic concentrations,strongly up-regulated
same,expression of the PARP gene,[1]; dose-dependent,down-regulated
same,"expression of CDKN1A, DDIT3 and GADD45G",[1]; lower concentrations,strongly down-regulated
same,number of DNA damage response genes significantly increased or decreased greater than 2-fold,"[1]; of 83 genes, 20, 40, 80 or 160 nM, 24 h",16 genes
same,number of telomere maintenance genes with greater than two-fold abundance changes,"[2]; 20, 40 or 80 nM, 24 h",seven
same,expression of the gene encoding POT1,[2]; borderline of statistical significance,down-regulation
same,number of telomere maintenance genes up or down-regulated to a statistically significant level (P<0.05),"[2]; of 83 genes, 20, 40 or 80 nM, 24 h",30 genes
same,pIC50,Panc1 (pancreatic) cells,7.70 to 8.00
same,telomerase activity inhibition,telomerase,not inhibitors of telomerase activity
